US8735575B2, “Phenoxazine derivatives and methods of use thereof” (Washington University, priority 2010, dated 2014)
Where two headings read alike, the source gives them in different places.

Assays:
physchem = type: physicochemical
Procedure: (§1) The logPoct value is widely used in quantitative structure-activity relationship (QSAR) studies and rational drug design as a measure of molecular hydrophobicity. Hydrophobicity affects drug absorption, bioavailability, hydrophobic drug-receptor interactions, metabolism of molecules, and their toxicity. […] The mixture will be incubated with agitation for 30 min until ionic and non-ionic forms of test compound reach equilibrium. Two layers will be separated by centrifugation. Test compound's concentrations in octanol and water layers will be determined by UV/VIS spectrophotometry. The logPoct value will be calculated from log(concentration in n-octanol fraction/concentration in water fraction). Experiments will be repeated at least 3 times with triplicated samples.

CAA [1] = target: T1, CAA (Homo sapiens, UniProt P05067); assay: In situ binding assay on CAA in fixed brain sections of Tg2576 mice; set-up: species or system mouse (Tg2576); Binding affinity in situ, Bmax on CAA: unit not given here; settings: for Kd: read-out: Binding affinity in situ, KD (nM) on CAA
CAA [2] = target: T1, CAA; assay: Binding affinities for CAA on isolated vessels determined by fluorescent binding; settings: read-out: Binding affinity (nM) Ki
Procedure: The isolation of cerebral vessels for biochemical analysis will be performed as described (78, 98). […] After the cerebellum is removed, the brain will be homogenized in fivefold excess of vessel buffer. An equal volume of 26% dextran will be added, and the tissue will be centrifuged at 6200×g for 30 min at 4° C. The resulting vessels form a pellet, whereas the parenchymal “vessel-free” material forms a solid, compact disc at the top of the solution. The […] will be resuspended in vessel buffer and passed over a 40-μm nylon mesh to capture vessels. Vessel and parenchymal material will be lysed in 5 M guanidine, 50 mM Tris, pH 8, with protease inhibitor cocktail (Roche) for 3 hr.

[3] = tested on: cerebrovascular Aβ deposits; assay: In vivo live imaging of CAA amyloid deposits through closed cranial window; set-up: species or system mouse (Tg2576); settings: 16-month old Tg2576 mice, resorufin 2 μM
Procedure: FIG. 4 depicts in vivo live imaging of CAA amyloid deposits through closed cranial window. A,B. Closed cranial window was prepared on the right parietal bone of 16-month-old Tg2576 mice. Leptomeningeal arterioles (B) were subjected to live imaging using a fluorescent microscope. […] Scale bars: in C-E: 250 μm, in E: 100 μm.
as §1

[4] = cited from earlier work; for Lipophilicity Poct: data from the previous report (Klunk et al. 2002)
neuritic plaques = neuritic plaques (Homo sapiens, UniProt P05067); assay: In situ binding assay on neuritic plaques in fixed brain sections of Tg2576 mice; set-up: species or system mouse (Tg2576); settings: for Kd: in situ, Tg2576 brain sections, read-out: Binding affinity in situ, KD (nM) on Plaques
Text: (§2) Tg2576 mice are a well characterized mouse model of AD and CAA. They develop congophilic Aβ aggregates within neuritic plaques and leptomeningeal and cortical penetrating arteries at 11 months of age (Hsiao et al., 1996; Kawarabayashi et al., 2001; Fryer et al., 2005; Han et al., 2008).
(§3) The Ki values for CAA vs. neuritic plaques will be calculated utilizing the fluorescent amyloid-ligand methoxy-X34 and fluorescent microscopic method. […] Tissue sections (3 sections per reaction) will be then mounted and coverslipped. Photographs of methoxy-X34 binding images will be taken using a Nikon fluorescent microscope. The fluorescent intensity on cerebral amyloid deposits and neuritic plaques will be separately quantified using Image J software. Finally, Ki values will be calculated by plotting % bound vs. log concentrations of competitors followed by non-linear regression using the GraphPad Prism software. The maximum binding will be obtained from the methoxy-X34 intensity in the absence of competitors, while non-specific binding will be detected by the fluorescent intensity in brain tissues incubated without methoxy-X34.
(§4) Tg2576 mice or littermate controls at 15 months of age will be perfused with phosphatebuffered saline (PBS) for 5 min. Brains will be removed, fixed in 4% paraformaldehyde, and preserved in 30% glucose-PBS solution at 4° C. Brains will be coronally sectioned using a microtome and kept in cryoprotectant solution at −20° C. To label amyloid deposits, brain sections (3 sections per reaction) will be permeabilized with PBS containing 0.25% Triton X-100 for 20 min at room temperature, followed by incubation with 1 μM methoxy-X34 in the presence or absence of competitors at various concentrations (10-9-10-6 M). Sections will be subjected to fluorescent microscopy using a Nikon Eclipse C600 microscope. The fluorescent intensity of methoxy-X34 in vessels and neuritic plaques will be quantified using the ImageJ software. The binding affinity (Ki) will be calculated using the GraphPad Prism software.

CAA vs. neuritic plaques [5] = assay: Fluorescent co-staining of fixed brain sections of Tg2576 mice; set-up: species or system mouse (Tg2576); settings: aged Tg2576 mice, FIG. 1
Text: as §2

CAA vs. neuritic plaques [6] = assay: Staining of paraffin-embedded cortical sections of a human AD patient; settings: autopsied AD patient cortical sections, FIG. 3
Text: as §2

[7] = normal mice, cited from earlier work
CAA [8] = target: T1, CAA; assay: In situ binding assay on CAA in fixed brain sections of Tg2576 mice; set-up: species or system mouse (Tg2576)
Text: as §2, §3, §4

For `O=c1ccc2nc3ccc(OCc4ccccc4)cc3oc-2c1` [Benzyloxy-resorufin], the logP (physchem) was 2.21 and the “Binding affinity in situ, Bmax on CAA” value (CAA [1]) was 410.

For `CCOc1ccc2nc3ccc(=O)cc-3oc2c1` [Ethoxy-resorufin], the logP (physchem) was 2.35, the Ki (CAA [2]) was 262 nM and the “Binding affinity in situ, Bmax on CAA” value (CAA [1]) was 107. It also gave a Kd (CAA [1]) of 247 nM.

For `COc1cc(/C=C/c2ccc(O)cc2)ccc1/C=C/c1ccc(O)cc1` [Methoxy-X04, reference compound], the “fluorescent labeling in live mice, topical application through cranial window” value [3] is listed as “present in both cerebral arteries and parenchymal neuritic plaques” and the “Lipophilicity Poct” value [4] is listed as “^b2.6”.

For `[11CH3]Oc1ccc(C=Cc2ccc(C=Cc3ccc(O)c(C(=O)O)c3)cc2)cc1C(=O)O` [Methoxy-X34], the “Lipophilicity Poct” value [4] is given as “^b0.19”.

With `COc1ccc2nc3ccc(=O)cc-3oc2c1` [Methoxy-resorufin] the logP (physchem) was 1.95.

In the case of `CCCCCOc1ccc2nc3ccc(=O)cc-3oc2c1` [Pentoxy-resorufin], the logP (physchem) is reported as 2.34.

In the case of `CC(=O)Oc1ccc2nc3ccc(=O)cc-3oc2c1` [Resorufin acetate], the logP (physchem) is reported as 2.79.

For `O=c1ccc2nc3ccc(O)cc3oc-2c1` [Resorufin], the “binding to neuritic plaques” value (neuritic plaques; in situ binding assay at a concentration of 160 μM) was “negligible”, the logP (physchem) was 0.387 and the “staining of CAA vs. neuritic plaques” value (CAA vs. neuritic plaques [5]) was “CAA>>>neuritic plaques”. For the same compound, the “staining of 3D6-positive arterioles vs. neuritic plaques” value (CAA vs. neuritic plaques [6]) was “prominent in 3D6-positive cerebral arterioles but was rarely seen in 3D6-positive neuritic plaques” and the “Binding affinity in situ, Bmax on CAA” value (CAA [1]) was 1523/ 885.

With `C#COc1ccc2nc3ccc(=O)cc-3oc2c1` [WC-5-1] the Kd (neuritic plaques) was over 4000 nM, the “Lipophilicity Poct” value (physchem) was 2.407 and the “Binding affinity in situ, Bmax on CAA” value (CAA [1]) was 485. It also gave a Kd (CAA [1]) of 173 nM.

For `O=c1ccc2nc3ccc(OCCF)cc3oc-2c1` [WC-5-2], the Kd (neuritic plaques) was over 4000 nM, the “Lipophilicity Poct” value (physchem) was 2.774 and the “Binding affinity in situ, Bmax on CAA” value (CAA [1]) was 869. For the same compound, the Kd (CAA [1]) was 235 nM.

In the case of `O=c1ccc2nc3ccc(OCc4cn(CCF)nn4)cc3oc-2c1` [WC-5-3], the logP (physchem) is reported as 2.04 and the “Binding affinity in situ, Bmax on CAA” value (CAA [1]) is reported as 527.

For `COc1cccc(COc2ccc3nc4ccc(=O)cc-4oc3c2)c1` [WC-5-4], the logP (physchem) was 2.97 and the “Binding affinity in situ, Bmax on CAA” value (CAA [1]) was 699.

For `COc1ccc(COc2ccc3nc4ccc(=O)cc-4oc3c2)cc1` [WC-5-5], the logP (physchem) was 1.91 and the “Binding affinity in situ, Bmax on CAA” value (CAA [1]) was 135.

For `O=c1ccc2nc3ccc(OCc4ccc(OCCF)cc4)cc3oc-2c1` [WC-5-7], the logP (physchem) was 3.42 and the “Binding affinity in situ, Bmax on CAA” value (CAA [1]) was 1304.

With `CC(=O)OCCOc1ccc2nc3ccc(=O)cc-3oc2c1` [WC-5-8] the logP (physchem) was 2.09.

With `O=c1ccc2nc3ccc(OCCBr)cc3oc-2c1` [WC-5-9] the logP (physchem) was 2.2.

In the case of `O=c1ccc2nc3ccc(OCc4ccc(I)cc4)cc3oc-2c1` [WC-5-31], the “Lipophilicity Poct” value (physchem; 30 min) is reported as >4.89??.

For `[11CH3]Nc1ccc(-c2nc3ccc(O)cc3s2)cc1` [[11C]PIB], the “brain uptake at 2 min after injection” value ([7]; 2 min) is listed as 3.2 % ID/g, the “brain level after washout at 60 min” value ([7]; 60 min) is listed as 0.21 % ID/g and the “fraction in the brain cleared within 60 min” value ([7]; within 60 min) is listed as 93%.

In the case of `[11CH3]Oc1cc(C=Cc2ccc(O)cc2)ccc1C=Cc1ccc(O)cc1` [[11C]methoxy-X04], the logPoct ([4]; cited study (96)) is listed as 2.6.

With `CCOc1ccc2nc3ccc(=O)cc-3oc2c1` [ethyl-resorufin] the “binding affinity for CAA deposits, in words” value (“binding affinity … in words” below) (CAA [8]) was “low nanomolar range” and the “lipophilicity, in words” value (physchem) was “moderate lipophilicity”.

With methoxyphenyl-resorufin the “binding affinity … in words” value (CAA [8]) was “low nanomolar range” and the “lipophilicity, in words” value (physchem) was “moderate lipophilicity”.

For phenyl-resorufin, the “binding affinity … in words” value (CAA [8]) was “low nanomolar range” and the “lipophilicity, in words” value (physchem) was “moderate lipophilicity”.
